Measured values reported in ChEMBL document CHEMBL1125229 (J Med Chem, 1991).

Molecular target: Angiotensin-converting enzyme (Homo sapiens, UniProt P12821)
Test: Compound was tested for its inhibitory potency against angiotensin I converting enzyme.

Chain of Angiotensin-converting enzyme (P12821 whole entry): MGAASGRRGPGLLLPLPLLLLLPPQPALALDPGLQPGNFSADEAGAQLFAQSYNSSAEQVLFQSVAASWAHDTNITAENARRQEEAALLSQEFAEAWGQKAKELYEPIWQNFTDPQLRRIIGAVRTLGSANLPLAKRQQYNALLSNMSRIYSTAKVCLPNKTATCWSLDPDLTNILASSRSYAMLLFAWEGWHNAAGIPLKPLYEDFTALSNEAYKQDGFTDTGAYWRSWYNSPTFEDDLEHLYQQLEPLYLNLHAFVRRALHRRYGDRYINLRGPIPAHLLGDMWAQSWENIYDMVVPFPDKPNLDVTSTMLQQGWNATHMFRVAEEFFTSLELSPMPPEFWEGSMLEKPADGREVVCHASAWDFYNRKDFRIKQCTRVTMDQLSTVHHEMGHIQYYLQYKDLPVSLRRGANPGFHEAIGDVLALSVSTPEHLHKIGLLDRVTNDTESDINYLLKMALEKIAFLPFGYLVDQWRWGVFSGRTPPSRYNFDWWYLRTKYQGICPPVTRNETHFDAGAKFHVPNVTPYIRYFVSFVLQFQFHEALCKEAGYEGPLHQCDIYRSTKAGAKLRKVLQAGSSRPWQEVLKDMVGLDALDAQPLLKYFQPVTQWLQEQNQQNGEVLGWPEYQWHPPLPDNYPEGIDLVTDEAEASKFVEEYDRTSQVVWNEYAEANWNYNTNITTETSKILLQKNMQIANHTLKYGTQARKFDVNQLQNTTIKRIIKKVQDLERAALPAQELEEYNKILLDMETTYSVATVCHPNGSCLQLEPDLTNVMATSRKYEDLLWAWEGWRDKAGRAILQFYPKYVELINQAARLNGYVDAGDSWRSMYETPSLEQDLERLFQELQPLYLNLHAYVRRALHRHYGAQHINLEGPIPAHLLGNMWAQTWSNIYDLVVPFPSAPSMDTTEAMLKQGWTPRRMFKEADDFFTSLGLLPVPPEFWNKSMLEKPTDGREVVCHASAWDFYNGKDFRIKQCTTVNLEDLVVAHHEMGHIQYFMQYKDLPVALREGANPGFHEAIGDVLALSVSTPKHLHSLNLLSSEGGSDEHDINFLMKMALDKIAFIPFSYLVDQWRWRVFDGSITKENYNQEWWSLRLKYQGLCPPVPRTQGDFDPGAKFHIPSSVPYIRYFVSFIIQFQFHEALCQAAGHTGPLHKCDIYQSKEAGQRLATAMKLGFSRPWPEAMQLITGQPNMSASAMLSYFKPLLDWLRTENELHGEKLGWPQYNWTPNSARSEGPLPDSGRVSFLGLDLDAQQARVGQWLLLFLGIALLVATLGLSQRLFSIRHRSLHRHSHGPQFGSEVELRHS

O=C(O)C(CCc1ccccc1)NC1Cc2ccccc2[C@H]2CCC[C@@H](C(=O)O)N2C1=O (stereo partly specified)
Ki: 1.2 nM
